According to article PMC9225785, “Design, synthesis, and biological evaluation of a novel series of 2-(2,6-dioxopiperidin-3-yl)isoquinoline-1,3(2H,4H)-dione derivatives as cereblon modulators” (Journal of Enzyme Inhibition and Medicinal Chemistry, 2022):
Where two headings read alike, the source gives them in different places.

How the values were obtained:
[1] = PBMC toxicity by CCK8; format: cell-based, human; details: human, PBMCs isolated from healthy donors, CCK-8, 20.0 µM, relative to control cells; read-out: PBMC cell viability (%)
Method: (§1) And same time, the toxicity of the compounds on the normal human cell line PBMC was also tested by CCK8.
(§2) The NCI-H929 cells were cultured in RPMI-1640 media supplemented with 10% FBS, 100 U/mL penicillin–100 µg/mL streptomycin, and 0.05 mM 2-mercaptoethanol. The U2932 cells were cultured in RPMI-1640 media supplemented with 10% FBS and 100 U/mL penicillin–100 µg/mL streptomycin. The PBMCs were isolated from healthy donors.
(§3) For the cell proliferation experiments, 1.0 × 10^5 cells were first seeded in the 96-well culture plate and incubated overnight. Compounds tested were serially diluted in the corresponding media and then added to the well of 96-well plate in a final volume of 100 µL and then the cells were incubated for 72 h at 37 °C. Finally, 10 µL of CCK-8 was added to each well for 1–4 h, and the absorbance values were read at 450 nm in a Microplate Reader (ELx-800, BioTek Instruments, Winooski, VT). The IC50 value for each compound was calculated at the basis of the number of viable cells using GraphPad Prism 5.0 software (San Diego, CA).

[2] = test system: U2932 cells; experiment: CCK8 antiproliferative assay, U2932; details: Homo sapiens, U2932, 72 h, read-out: IC50 (μM ± SD) U2932
[3] = test system: NCI-H929 cells; experiment: CCK8 antiproliferative assay, NCI-H929; details: Homo sapiens, NCI-H929, 72 h, read-out: IC50 (μM ± SD) NCI-H929
[4] = test system: TNF-α; experiment: TNF-α ELISA assay in LPS stimulated PBMC; format: cell-based, human; details: read-out: IC50 (μM ± SD) TNF-α
Method: Previous studies have reported IMiDs stimulate immunomodulatory activity main through the TNF-α inhibition[9]^,[10]. In this test, the effect of the synthesised compounds on TNF-α in LPS stimulated human peripheral blood mononuclear cell (PBMC) was evaluated (Table 1). The SAR of TNF-α inhibition was similar to the antiproliferative activity. […]
PBMC (4 × 10^5 cells) were incubated in the 96-well culture plate and stimulated by 2 µg/mL LPS. The level of TNF-α was checked by standard ELISA (R&D Systems, Minneapolis, MN). Analysis was performed by following the manufacture’s procedure for each ELISA kit. The test samples were assessed in triplicate and absorbance was taken on a Microplate Reader (ELx-800, BioTek Instruments, Winooski, VT) at 450 nm. The IC50 value for each compound was calculated by comparison with standard curves with purified recombinant TNF-α using GraphPad Prism 5.0 software (San Diego, CA).

[5] = test system: NCI-H929 cells; experiment: Cell cycle analysis (PI staining, flow cytometry); format: cell-based; details: 48 h; for cell cycle arrest: NCI-H929, 0.5-5.0 µM
Method: The NCI-H929 cells were treated with each of the compounds at 0, 0.5, 1.0, and 5.0 µM for 48 h. Following this treatment, the PI-stained cells were analysed and the results are outlined in Figure 5.
(§4) Flow cytometry was used to analyse effects of the compounds tested on cell cycle (PI staining) and apoptosis (Annexin V-FITC and PI staining). Stained cells were analysed on a Flow Cytometer (BD Biosciences, Franklin Lakes, NJ), and the data were analysed using the Cell Quest software.

[6] = test system: PBMC; experiment: PBMC toxicity by CCK8; format: cell-based, human
Method: as §1, §2, §3

[7] = target: T1, IKZF3 (Homo sapiens, UniProt Q96SW2+Q9UKT9); experiment: Immunoblot analysis of IKZF3 degradation in NCI-H929 cells; format: cell-based; details: for IKZF3 degradation: 72 h, immunoblot
T1 construct: endogenous in cells; host or cells: NCI-H929
T1 sequence (Q9UKT9 whole entry): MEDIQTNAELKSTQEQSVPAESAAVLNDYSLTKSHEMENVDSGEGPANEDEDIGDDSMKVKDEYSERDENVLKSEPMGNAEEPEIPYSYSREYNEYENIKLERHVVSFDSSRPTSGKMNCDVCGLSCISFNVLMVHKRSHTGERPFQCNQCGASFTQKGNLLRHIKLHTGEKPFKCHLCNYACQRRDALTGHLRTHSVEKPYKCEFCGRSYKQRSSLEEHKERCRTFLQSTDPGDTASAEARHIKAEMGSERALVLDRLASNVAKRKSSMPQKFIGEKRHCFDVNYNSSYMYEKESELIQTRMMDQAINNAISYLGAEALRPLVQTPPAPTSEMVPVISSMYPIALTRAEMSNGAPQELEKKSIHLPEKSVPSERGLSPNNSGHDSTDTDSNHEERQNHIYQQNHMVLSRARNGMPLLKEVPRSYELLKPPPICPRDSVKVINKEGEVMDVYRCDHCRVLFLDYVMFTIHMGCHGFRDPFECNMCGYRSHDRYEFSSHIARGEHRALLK
T1 sequence (Q96SW2 whole entry): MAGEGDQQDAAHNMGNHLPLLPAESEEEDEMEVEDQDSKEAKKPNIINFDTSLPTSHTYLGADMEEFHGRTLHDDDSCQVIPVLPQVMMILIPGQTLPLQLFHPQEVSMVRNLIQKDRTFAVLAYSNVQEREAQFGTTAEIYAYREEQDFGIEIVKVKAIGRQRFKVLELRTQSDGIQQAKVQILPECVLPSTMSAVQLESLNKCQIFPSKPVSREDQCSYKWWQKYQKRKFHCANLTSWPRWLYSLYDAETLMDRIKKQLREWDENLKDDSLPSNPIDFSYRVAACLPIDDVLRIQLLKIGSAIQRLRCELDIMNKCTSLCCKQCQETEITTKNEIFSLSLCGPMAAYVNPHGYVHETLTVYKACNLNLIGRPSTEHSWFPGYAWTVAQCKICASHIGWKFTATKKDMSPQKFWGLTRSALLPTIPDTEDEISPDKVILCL
T1 sequence (Q16531 whole entry partner): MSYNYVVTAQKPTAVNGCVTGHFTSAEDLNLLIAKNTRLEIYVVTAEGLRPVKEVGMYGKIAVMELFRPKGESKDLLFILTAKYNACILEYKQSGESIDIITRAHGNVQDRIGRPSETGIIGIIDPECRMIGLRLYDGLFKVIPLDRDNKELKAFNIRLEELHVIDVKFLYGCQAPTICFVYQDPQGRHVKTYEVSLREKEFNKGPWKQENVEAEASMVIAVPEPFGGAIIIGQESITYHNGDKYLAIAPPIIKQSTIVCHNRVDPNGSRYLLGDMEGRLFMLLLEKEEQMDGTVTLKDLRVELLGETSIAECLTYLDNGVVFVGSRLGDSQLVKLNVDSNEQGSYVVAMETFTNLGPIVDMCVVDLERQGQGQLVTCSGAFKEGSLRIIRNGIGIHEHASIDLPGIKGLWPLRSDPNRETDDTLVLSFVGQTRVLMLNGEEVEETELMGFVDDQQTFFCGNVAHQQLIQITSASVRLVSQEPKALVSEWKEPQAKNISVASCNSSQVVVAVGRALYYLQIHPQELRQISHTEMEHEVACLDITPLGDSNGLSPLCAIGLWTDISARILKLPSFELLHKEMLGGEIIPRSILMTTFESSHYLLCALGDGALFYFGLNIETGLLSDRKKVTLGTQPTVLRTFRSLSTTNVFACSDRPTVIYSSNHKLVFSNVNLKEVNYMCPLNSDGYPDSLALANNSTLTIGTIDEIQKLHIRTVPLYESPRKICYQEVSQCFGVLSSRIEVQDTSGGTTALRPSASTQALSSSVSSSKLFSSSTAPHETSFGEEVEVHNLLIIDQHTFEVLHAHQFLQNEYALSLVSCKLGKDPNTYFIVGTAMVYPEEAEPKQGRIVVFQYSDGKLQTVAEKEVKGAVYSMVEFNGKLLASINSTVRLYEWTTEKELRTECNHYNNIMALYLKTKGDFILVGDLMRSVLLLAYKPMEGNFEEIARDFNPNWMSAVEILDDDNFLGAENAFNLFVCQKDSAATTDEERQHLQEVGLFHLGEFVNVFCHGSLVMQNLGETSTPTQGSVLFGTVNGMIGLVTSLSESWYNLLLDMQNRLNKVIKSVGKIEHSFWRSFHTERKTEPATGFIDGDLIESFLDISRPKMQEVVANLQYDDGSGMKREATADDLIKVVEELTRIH
Method: (§5) Subsequent proteasome degradation of these transcription factors kills MM cells. Accordingly, we used the immunoblot assay to measure the IKZF1 and IKZF3 proteins degradation in the current study.
(§6) For immunoblot analysis, NCI-H929 cells were treated with the tested compounds at the indicated concentrations for various times, collected, and lysed in RIPA buffer in the presence of protease inhibitors on ice for 30 min. The protein from each sample was quantitated using a BCA protein assay kit, and was separated by SDS-PAGE and then transferred onto the PVDF membrane. The membranes were probed with specific primary antibodies at 4 °C overnight, followed by incubation with IRDye®680 goat anti-mouse secondary antibodies. The signals were acquired using the Odyssey Infrared Imaging System (LI-COR, Lincoln, NE).

[8] = target: T2, IKZF1 (Homo sapiens, UniProt Q13422+Q96SW2); experiment: Immunoblot analysis of IKZF1 degradation in NCI-H929 cells; format: cell-based; details: for IKZF1 degradation: 72 h, immunoblot
T2 construct: endogenous in cells; host or cells: NCI-H929
T2 sequence (Q13422 whole entry): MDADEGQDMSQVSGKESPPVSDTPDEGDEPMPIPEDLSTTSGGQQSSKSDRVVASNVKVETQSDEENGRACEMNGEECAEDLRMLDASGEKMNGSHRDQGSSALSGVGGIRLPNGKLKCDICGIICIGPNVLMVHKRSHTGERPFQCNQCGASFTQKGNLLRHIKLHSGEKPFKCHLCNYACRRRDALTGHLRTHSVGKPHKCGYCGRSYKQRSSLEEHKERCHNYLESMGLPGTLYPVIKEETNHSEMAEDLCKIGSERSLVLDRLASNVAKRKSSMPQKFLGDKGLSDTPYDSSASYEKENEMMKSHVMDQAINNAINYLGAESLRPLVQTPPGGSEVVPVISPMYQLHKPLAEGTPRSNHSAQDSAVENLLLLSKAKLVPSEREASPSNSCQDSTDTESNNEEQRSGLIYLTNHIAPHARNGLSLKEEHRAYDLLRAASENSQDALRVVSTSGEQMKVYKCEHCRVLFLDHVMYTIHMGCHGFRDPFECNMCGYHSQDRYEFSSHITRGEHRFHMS
T2 sequence (Q96SW2 whole entry): as the sequence (Q96SW2 whole entry) above
T2 sequence (Q16531 whole entry partner): as the sequence (Q16531 whole entry partner) above
Method: as §5, §6

[9] = target: T3, CRBN (His-tagged CRBN-DDB1 complex) (Homo sapiens, UniProt Q96SW2); experiment: TR-FRET CRBN binding assay (displacement of Cy5-labeled thalidomide)
T3 construct: purchased Abcam ab235611
T3 sequence (Q96SW2 whole entry): as the sequence (Q96SW2 whole entry) above
T3 sequence (Q16531 whole entry partner): as the sequence (Q16531 whole entry partner) above
Method: His-tagged CRBN-DDB1 complex (Abcam, Cambridge, UK, catalogue no. ab235611) 60 nM was mixed with Eu-anti-His Tag antibody 3 nM (Thermo Fisher, Waltham, MA, catalogue no. PV5596) in a final buffer containing 20 mM HEPES pH 7.0, 150 mM NaCl, and 0.005% Tween-20. The solution was then mixed with Cy5-labeled thalidomide 10 nM and various concentrations of compounds, and then was incubated at room temperature for 1 h. FRET signals were measured on an EnVision plate reader by exciting at 340 nm and recording emission at both 615 nm (no FRET control) and 665 nm (FRET signals) with a 60 µs delay. […] Quantitative loss of FRET efficiency as a function of compound concentrations was fitted by GraphPad Prism 5.0 (San Diego, CA) and calculated the IC50.

[10] = test system: NCI-H929 cells; experiment: Annexin V-FITC/PI apoptosis assay; format: cell-based; details: for B1: necrotic cells / B2: late apoptosis / B3: live cells / B4: early apoptosis: 72 h; for apoptotic events: 72 h (early + late apoptosis)
Method: The IMiDs were reported to induce apoptosis through activation of caspase 8 in MM cells. Accordingly, the ability of the selected compound 10a to induce apoptosis in NCI-H929 cells was investigated using annexin V fluorescein isothiocyanate (FITC)/propidium iodide (PI) staining assay.
as §4

[11] = TNF-α level in LPS stimulated human PBMC, ELISA
[12] = NCI-H929, indicated concentrations
[13] = NCI-H929, 100 nM bortezomib in combination with compound 10a (10 µM)

SMILES | viability at 72 h, 20 µM [1] | IC50 [2] | IC50 [3] | IC50 [4, 11] | other results
O=C1CCC(N2C(=O)Cc3ccccc3C2=O)C(=O)N1 (stereo not shown) [Compound 3a, 2-(2,6-dioxopiperidin-3-yl)isoquinoline-1,3(2H,4H)-dione] | 99% | > 50 µM | 32.2 ± 1.42 µM | > 50 µM | 
COc1ccc2c(c1)C(=O)N(C1CCC(=O)NC1=O)C(=O)C2 (stereo not shown) [Compound 3b, 2-(2,6-Dioxopiperidin-3-yl)-7-methoxyisoquinoline-1,3(2H,4H)-dione] | 98% | 36.4 ± 1.22 µM | 28.2 ± 0.92 µM | 43.8 ± 1.88 µM | 
COc1ccc2c(c1)C(=O)N(C1CCC(=O)NC1=O)C(=O)C2(C)C (stereo not shown) [Compound 3c, 2-(2,6-Dioxopiperidin-3-yl)-7-methoxy-4,4-dimethylisoquinoline-1,3(2H,4H)-dione] | 100% | > 50 µM | > 50 µM | > 50 µM | 
O=C1CCC(N2C(=O)Cc3cccc([N+](=O)[O-])c3C2=O)C(=O)N1 (stereo not shown) [Compound 9a, 2-(2,6-dioxopiperidin-3-yl)-8-nitroisoquinoline-1,3(2H,4H)-dione] | 94% | 12.2 ± 0.58 µM | 9.26 ± 0.56 µM | 5.48 ± 1.04 µM | 
Nc1cccc2c1C(=O)N(C1CCC(=O)NC1=O)C(=O)C2 (stereo not shown) [Compound 10a, 8-amino-2-(2,6-dioxopiperidin-3-yl)isoquinoline-1,3(2H,4H)-dione] | 94% | 5.86 ± 0.12 µM | 2.25 ± 0.09 µM | 0.76 ± 0.08 µM | cells in G0/G1 cell cycle ([5]; NCI-H929, 5.0 µM): 42.9%; cell cycle arrest [5]: induce G0/G1 cell cycle arrest; toxicity to normal human cell line PBMC ([6]; CCK8, 20 µM): nearly no toxicity; PBMC cell viability (%) ([6]; CCK-8, 20.0 µM, relative to control cells, 20 µM): 99%; IKZF3 degradation ([7]; NCI-H929, 10 µM): completely degrade; IKZF3 degradation [7, 12]: induced the degradation; IKZF1 degradation ([8]; NCI-H929, 10 µM): completely degrade; IKZF1 degradation [8, 12]: induced the degradation; IC50 [9]: 4.83 µM; B1: necrotic cells ([10]; NCI-H929, 1 μM): 0.1%; B2: late apoptosis ([10]; NCI-H929, 1 μM): 15.6%; B3: live cells ([10]; NCI-H929, 1 μM): 70.4%; B4: early apoptosis ([10]; NCI-H929, 1 μM): 13.9%; apoptotic events ([10]; NCI-H929, 1 µM): 29.5%; B1: necrotic cells ([10]; NCI-H929, 5 μM): 0.2%; B2: late apoptosis ([10]; NCI-H929, 5 μM): 21.3%; B3: live cells ([10]; NCI-H929, 5 μM): 65.1%; B4: early apoptosis ([10]; NCI-H929, 5 μM): 13.3%; apoptotic events ([10]; NCI-H929, 5 µM): 34.6%
Nc1ccc2c(c1)C(=O)N(C1CCC(=O)NC1=O)C(=O)C2 (stereo not shown) [Compound 10b, 7-Amino-2-(2,6-dioxopiperidin-3-yl)isoquinoline-1,3(2H,4H)-dione] | 98% | 20.6 ± 0.82 µM | 16.3 ± 0.56 µM | 21.3 ± 1.26 µM | 
Nc1ccc2c(c1)CC(=O)N(C1CCC(=O)NC1=O)C2=O (stereo not shown) [Compound 10c, 6-Amino-2–(2,6-dioxopiperidin-3-yl)isoquinoline-1,3(2H,4H)-dione] | 100% | 26.3 ± 0.76 µM | 18.7 ± 0.83 µM | 38.5 ± 1.38 µM | 
Nc1cccc2c1CC(=O)N(C1CCC(=O)NC1=O)C2=O (stereo not shown) [Compound 10d, 5-Amino-2–(2,6-dioxopiperidin-3-yl)isoquinoline-1,3(2H,4H)-dione] | 99% | > 50 µM | > 50 µM | > 50 µM | 
CC1(C)C(=O)N(C2CCC(=O)NC2=O)C(=O)c2c(N)cccc21 (stereo not shown) [Compound 12a, 8-Amino-2–(2,6-dioxopiperidin-3-yl)-4,4-dimethylisoquinoline-1,3(2H,4H)-dione] | 100% | > 50 µM | > 50 µM | > 50 µM | 
Nc1cccc2c1C(=O)N(C1CCC(=O)NC1=O)C(=O)C21CC1 (stereo not shown) [Compound 12b, 8′-Amino-2′-(2,6-dioxopiperidin-3-yl)-1′H-spiro[cyclopropane-1,4′-isoquinoline]-1′,3′(2′H)-dione] | 100% | > 50 µM | > 50 µM | > 50 µM | 
Nc1cccc2c1CN(C1CCC(=O)NC1=O)C2=O (stereo not shown) [Lenalidomide, reference compound] | 86% | 3.24 ± 0.11 µM | 1.12 ± 0.06 µM |  | cell cycle arrest [5]: induce G0/G1 cell cycle arrest; IC50 ([4]; Homo sapiens, PBMC): 0.13 ± 0.02 µM; B1: necrotic cells ([10]; NCI-H929, 1 μM): 0.2%; B2: late apoptosis ([10]; NCI-H929, 1 μM): 18.1%; B3: live cells ([10]; NCI-H929, 1 μM): 68.6%; B4: early apoptosis ([10]; NCI-H929, 1 μM): 13.1%; apoptotic events ([10]; NCI-H929, 1 µM): 31.2%; B1: necrotic cells ([10]; NCI-H929, 5 μM): 0.1%; B2: late apoptosis ([10]; NCI-H929, 5 μM): 20.8%; B3: live cells ([10]; NCI-H929, 5 μM): 56.0%; B4: early apoptosis ([10]; NCI-H929, 5 μM): 23.1%; apoptotic events ([10]; NCI-H929, 5 µM): 43.9%
CC(C)C[C@H](NC(=O)[C@H](Cc1ccccc1)NC(=O)c1cnccn1)B(O)O [bortezomib, reference compound] |  |  |  |  | effect on IKZF3 degradation induced by compound 10a [7, 13]: can block the degradation; effect on IKZF1 degradation induced by compound 10a [8, 13]: can block the degradation
